EP4095134A1, “POLYCYCLIC COMPOUNDS FOR THE TREATMENT OF NEUROLOGICAL INDICATIONS” (UCL Business Ltd, priority 2021, dated 2022)
Like-named read-outs stand apart in the source and are kept apart here.

Assays:
[1] = CNS penetration, single compound oral or intravenous administration, brain and plasma by LC-MS/MS; format: in vivo, C57B16/J mice; details: mouse
Procedure: To assess pharmacokinetic properties and CNS penetration of compounds, compounds were administered to mice via the oral and intravenous routes. For oral dosing, compound solutions were prepared in a suitable vehicle (such as 10% PEG400/5% Kolliphor EL/85% H2O) at a concentration of 0.5mg/mL. Compounds were dosed via oral gavage at a dosing volume of 10mL/kg to C57B16/J mice, for a final dose of 5mg/kg. Animals were culled at 8 timepoints to 24 hours, and plasma and brain samples collected for bioanalysis.
For intravenous dosing, compound solutions were prepared in a suitable vehicle (such as 10% DMSO/90%HPCD (20%)) at a concentration of 0.2mg/mL. Compound was administered via the intravenous route in a dosing volume of 5mL/kg, for a final dose of 1mg/kg. Animals were culled at various timepoints out to 24 hours, and plasma and brain collected for bioanalysis.
For bioanalysis, compound was prepared in DMSO at a final concentration of 1mg/mL. Analytical standards were prepared from the initial 1mg/mL stock solution of compound, with a 12-point standard curve range from 0.5ng/mL to 2000ng/mL, with independent quality control tests from 1ng/mL to 1000ng/mL run to validate the standards. All standards and QC samples were matrix matched to eliminate possible suppression. Plasma samples were prepared with a 1:10 dilution in plasma. Brain tissue samples were homogenized in 0.1M phosphate buffer solution at a ratio of 1:4, and used without further dilution. Dose solutions were diluted in a control matrix to a relative concentration that fell on the standard curve. Cold acetonitrile containing internal standard was added to all samples, standards, dose samples and QC samples; samples were then centrifuged for 30 minutes at 4000rpm. After centrifugation, supernatant was transferred to a new 96-well plate, diluted with an equal volume of water and mixed thoroughly before LC-MS analysis.
Supernatents were analysed by LC-MS/MS. From the analysis data a response ratio was obtained using the formula Response Ratio = Test Peak Area/Internal Standard Peak Area. From the standard curve, the test peak area was converted to concentration of test compound.
(§1) To establish CNS penetration, the ratio of the concentration of each compound in the […] was assessed.

P2Y1 receptor = biological target: T1, P2Y1 receptor (Homo sapiens, UniProt P47900); assay: P2Y1 IP1 accumulation HTRF assay, antagonism of agonist MRS2365 in stably transfected cells; format: cell-based
T1 construct: expressed in transfected cells
T1 sequence (P47900 whole entry): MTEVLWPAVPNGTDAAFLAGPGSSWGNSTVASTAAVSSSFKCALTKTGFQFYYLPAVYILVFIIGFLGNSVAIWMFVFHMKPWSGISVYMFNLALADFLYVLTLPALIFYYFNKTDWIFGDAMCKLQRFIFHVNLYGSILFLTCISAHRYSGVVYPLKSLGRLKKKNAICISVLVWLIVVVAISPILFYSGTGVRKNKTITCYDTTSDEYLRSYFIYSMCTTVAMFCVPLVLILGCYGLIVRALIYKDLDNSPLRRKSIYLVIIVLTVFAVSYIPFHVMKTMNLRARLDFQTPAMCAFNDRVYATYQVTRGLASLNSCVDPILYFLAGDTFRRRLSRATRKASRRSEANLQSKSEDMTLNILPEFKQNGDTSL
Outline: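 HTRF IP1 accumulation in stably P2Y1-overexpressing cells, plated the day before. Compounds pre-incubated 1 hour (10-point semi-log curve from 10µM, 0.1% DMSO), then 5nM MRS2365 added for 60 minutes, both at 37°C / 5% CO2. IP1 interpolated from standard curve; IC50 from N ≥ 4 runs.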

[2] = CNS penetration, intravenous cassette dosing, brain and plasma by LC-MS/MS; format: in vivo, C57B16/J mice; details: mouse, iv (0.4 mg/kg), t = 2 hr
Procedure: To assess penetration of compounds into the mouse central nervous system, intravenous pharmacokinetic studies were undertaken in C57B16/J mice. In each study, up to five compounds were formulated in a vehicle comprising DMSO, Kolliphor EL and HPCD (20% w/v) to a final dose for each compound of 0.4mg/kg. Compounds were then combined into a single dosing solution and administered together via the intravenous route into 24 mice. Total compound dose administered to each mouse was 2mg/kg. Mice were culled at 0.08, 0.25, 0.5, 1, 2, 4, 8 and 24 hours post dosing, and brain and plasma collected for bioanalysis.
For bioanalysis, compounds were prepared in DMSO and aliquoted together to ensure a final concentration of 1mg/mL per compound in DMSO. Analytical standards were prepared from the initial 1mg/mL stock solution of compound, with a 12-point standard curve range from 0.5ng/mL to 2000ng/mL, with independent quality control tests from 1ng/mL to 1000ng/mL run to validate the standards. All standards and QC samples were matrix matched to eliminate possible suppression. Plasma samples were prepared with a 1:10 dilution in plasma. […]
Supernatents were analysed by LC-MS/MS. […]
as §1

[3] = brain, po, p.o (5 mg/kg), AUC 0-24 h, read-out: CNS penetration: total brain to plasma ratio AUC 0-24 h
[4] = Example 2 table, as for example 1
[5] = brain, 1 mg/kg, iv, single compound, AUC0-24h, read-out: CNS penetration: total brain to plasma ratio AUC0-24h iv
[6] = brain, 1 mg/kg, iv, single compound, t = 2 h, read-out: CNS penetration: total brain to plasma ratio @ t =2 h iv
[7] = racemic, 5nM MRS2365, values rounded to nearest whole number, N >= 4
[8] = single enantiomer, 5nM MRS2365, values rounded to nearest whole number

Structure (SMILES): Cc1ccc(NC(=O)Nc2ccc(Cl)cc2F)c(Oc2ccccc2[C@@]2(C(F)(F)F)CCO2)n1 [drawing 320]
- Kp at 24 h [1, 3]: 1.3
- IC50 (P2Y1 receptor; [4]): 41 nM

Structure (SMILES): O=C(Nc1ccc(OC(F)(F)F)cc1)Nc1cccnc1Oc1ccccc1C1(C(F)(F)F)CCO1 (centres unmarked)
- Kp ([1]; C57B16/J, brain and plasma, 1 mg/kg, iv, single compound, AUC0-24h, read-out: CNS penetration: total brain to plasma ratio AUC0-24h iv): 2.1
- Kp at 2 h ([1]; C57B16/J, brain and plasma, 1 mg/kg, iv, single compound, t = 2 h, read-out: CNS penetration: total brain to plasma ratio @ t =2 h iv): 1.7
- Kp ([1]; C57B16/J, brain and plasma, oral, p.o (5 mg/kg), AUC 0-24 h, read-out: CNS penetration: total brain to plasma ratio AUC 0-24 h): 1.9
- IC50 (P2Y1 receptor; [4]): 84 nM

Structure (SMILES): CN1CC[C@@]1(c1ccccc1Oc1ncccc1NC(=O)Nc1ccc(OC(F)(F)F)cc1)C(F)(F)F (single isomer, unassigned)
- Kp at 2 h ([1]; C57B16/J, brain and plasma, po, p.o (5 mg/kg), value at t = 2h, read-out: CNS penetration: total brain to plasma ratio po (value at t = 2h)): 2.4
- IC50 (P2Y1 receptor; [4]): 39 nM

Structure (SMILES): CC1(C)CN(c2ccccc2NC(=O)Nc2ccc(OC(F)(F)F)cc2)c2c(O)ccc(-c3ccc(Cl)cc3)c21 [RS 1, 1-(2-(4-(4-chlorophenyl)-7-hydroxy-3,3-dimethylindolin-1-yl)phenyl)-3-(4-(trifluoromethoxy)phenyl)urea, reference compound]
- CNS penetration: total brain to plasma ratio [2]: BLLQ^d iv
- IC50 (P2Y1 receptor; [4]): 33 nM

Structure (SMILES): O=C(Nc1ccc(OC(F)(F)F)cc1)Nc1cccnc1Oc1ccccc1[C@]1(C(F)(F)F)CCO1 [drawing 316]
- Kp at 24 h [1, 5]: 3.1
- Kp at 2 h [1, 6]: 3.2
- Kp at 24 h [1, 3]: 2.4
- IC50 (P2Y1 receptor; [4]): 119 nM

Structure (SMILES): O=C(Nc1ccc(OC(F)(F)F)cc1)Nc1cccnc1Oc1ccccc1[C@@]1(C(F)(F)F)CCO1 [drawing 315]
- Kp at 24 h [1, 5]: 3.3
- Kp at 2 h [1, 6]: 2.8
- Kp at 24 h [1, 3]: 2.6
- IC50 (P2Y1 receptor; [4]): 68 nM

Structure (SMILES): Cc1ccc(NC(=O)Nc2ccc(OC(F)(F)F)cc2F)c(Oc2ccccc2[C@@]2(C(F)(F)F)CCO2)n1 [drawing 319]
- Kp at 24 h [1, 3]: 1.7
- IC50 (P2Y1 receptor; [4]): 34 nM

Structure (SMILES): Cc1ncc(NC(=O)Nc2ccc(OC3CC(F)(F)C3)cc2)c(Oc2ccccc2C2(C(F)(F)F)CCO2)n1 (racemic) [S81, 1-(4-(3,3-difluorocyclobutoxy)phenyl)-3-(2-methyl-4-(2-(2-(trifluoromethyl)oxetan-2-yl)phenoxy)pyrimidin-5-yl)urea]
- IC50 (P2Y1 receptor; [7]): 3530 nM

Structure (SMILES): Cc1c(Oc2ncccc2NC(=O)Nc2ccc(OC(F)(F)F)cc2)cccc1N1CC(C)(C)C1 [S93]
- IC50 (P2Y1 receptor; [7]): 683 nM

Structure (SMILES): Cc1ncc(NC(=O)Nc2ccc(Cl)c(F)c2)c(Oc2ccccc2C2(C(F)(F)F)CCO2)n1 (racemic) [S64, 1-(4-chloro-3-fluorophenyl)-3-(2-methyl-4-(2-(2-(trifluoromethyl)oxetan-2-yl)phenoxy)pyrimidin-5-yl)urea]
- IC50 (P2Y1 receptor; [7]): 926 nM

Structure (SMILES): O=C(Nc1ccc(OC(F)(F)F)cc1)Nc1cccnc1Oc1ccccc1[C@]1(C(F)(F)F)CCO1 [S111]
- IC50 (P2Y1 receptor; [8]): 119 nM

Structure (SMILES): O=C(Nc1ccc(F)cc1F)Nc1cccnc1Oc1ccccc1C1(C(F)(F)F)CCO1 (racemic) [S65, 1-(2,4-difluorophenyl)-3-(2-(2-(2-(trifluoromethyl)oxetan-2-yl)phenoxy)pyridin-3-yl)urea]
- IC50 (P2Y1 receptor; [7]): 983 nM

Structure (SMILES): O=C(Nc1ccc(OC(F)(F)F)cc1)Nc1cccnc1Oc1ccc(F)cc1C1(C(F)(F)F)CCO1 (racemic) [S26, 1-(2-(4-fluoro-2-(2-(trifluoromethyl)oxetan-2-yl)phenoxy)pyridin-3-yl)-3-(4-(trifluoromethoxy)phenyl)urea]
- IC50 (P2Y1 receptor; [7]): 152 nM

Structure (SMILES): O=C(Nc1ccc(OC(F)(F)F)cc1)Nc1cccnc1Oc1cccc(C2COC2)c1 (racemic) [S92]
- IC50 (P2Y1 receptor; [7]): 2790 nM

Structure (SMILES): Cn1c(C(F)(F)F)nc2ccc(NC(=O)Nc3cccnc3Oc3ccccc3C3(C(F)(F)F)CCO3)cc21 (racemic) [S78, 1-(1-methyl-2-(trifluoromethyl)-1H-benzo[d]imidazol-6-yl)-3-(2-(2-(2-(trifluoromethyl)oxetan-2-yl)phenoxy)pyridin-3-yl)urea]
- IC50 (P2Y1 receptor; [7]): 3160 nM

Structure (SMILES): Cc1ccc(NC(=O)Nc2ccc(Cl)cc2)c(Oc2ccc(F)cc2C2(C(F)(F)F)CCO2)n1 (racemic) [S32, 1-(4-chlorophenyl)-3-(2-(4-fluoro-2-(2-(trifluoromethyl)oxetan-2-yl)phenoxy)-6-methylpyridin-3-yl)urea]
- IC50 (P2Y1 receptor; [7]): 169 nM

Structure (SMILES): O=C(Nc1ccccc1)Nc1cccnc1Oc1ccccc1C1(C(F)(F)F)CCO1 (racemic) [S60, 1-phenyl-3-(2-(2-(2-(trifluoromethyl)oxetan-2-yl)phenoxy)pyridin-3-yl)urea]
- IC50 (P2Y1 receptor; [7]): 735 nM

Structure (SMILES): O=C(Nc1cc(F)c(Cl)cc1F)Nc1cccnc1Oc1ccccc1[C@@]1(C(F)(F)F)CCO1 (single isomer, unassigned) [S100]
- IC50 (P2Y1 receptor; [8]): 44 nM

Structure (SMILES): Cc1ccc(NC(=O)Nc2ccc(C#N)cc2)c(Oc2ccc(F)cc2C2(C(F)(F)F)CCO2)n1 (racemic) [S66, 1-(4-cyanophenyl)-3-(2-(4-fluoro-2-(2-(trifluoromethyl)oxetan-2-yl)phenoxy)-6-methylpyridin-3-yl)urea]
- IC50 (P2Y1 receptor; [7]): 1020 nM

Structure (SMILES): Cc1ccc(NC(=O)Nc2ccc(OC(F)(F)F)cc2F)c(Oc2ccccc2C2(C(F)(F)F)CCO2)n1 (racemic) [S2, 1-(2-fluoro-4-(trifluoromethoxy)phenyl)-3-(6-methyl-2-(2-(2-(trifluoromethyl)oxetan-2-yl)phenoxy)pyridin-3-yl)urea]
- IC50 (P2Y1 receptor; [7]): 33 nM

Structure (SMILES): Cc1ccc(NC(=O)Nc2ccc(OC(F)(F)F)cc2)c(Oc2ccccc2C(C)(C)C)n1 [RS2, 1-(2-(2-(tert-butyl)phenoxy)-6-methylpyridin-3-yl)-3-(4-(trifluoromethoxy)phenyl)urea]
- CNS penetration: total brain to plasma ratio [2]: BLLQ^d iv

Structure (SMILES): O=C(Nc1ccc(OC(F)(F)F)cc1)Nc1cccnc1Oc1ccccc1C1COC1 (racemic) [S87]
- IC50 (P2Y1 receptor; [7]): 4590 nM
